In assay [1] the target is T1, Prostaglandin G/H synthase 2 (Homo sapiens, UniProt P35354).
T1 sequence (P35354 whole entry): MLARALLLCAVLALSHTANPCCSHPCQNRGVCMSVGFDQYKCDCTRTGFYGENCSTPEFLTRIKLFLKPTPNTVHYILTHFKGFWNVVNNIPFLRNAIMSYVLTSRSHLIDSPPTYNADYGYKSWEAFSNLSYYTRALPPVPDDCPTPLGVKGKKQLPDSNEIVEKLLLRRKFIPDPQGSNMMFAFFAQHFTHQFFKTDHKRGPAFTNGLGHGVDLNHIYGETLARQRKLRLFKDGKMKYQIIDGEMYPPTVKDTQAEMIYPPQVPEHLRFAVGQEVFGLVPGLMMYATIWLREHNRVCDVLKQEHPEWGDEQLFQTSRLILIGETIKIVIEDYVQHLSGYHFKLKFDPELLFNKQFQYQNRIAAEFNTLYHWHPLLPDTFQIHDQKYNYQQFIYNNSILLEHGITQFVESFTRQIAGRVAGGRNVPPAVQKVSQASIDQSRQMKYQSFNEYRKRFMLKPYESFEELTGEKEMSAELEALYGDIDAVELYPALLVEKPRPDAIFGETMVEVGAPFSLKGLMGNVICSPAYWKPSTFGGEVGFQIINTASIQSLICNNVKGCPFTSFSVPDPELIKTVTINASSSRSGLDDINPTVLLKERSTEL
Briefly: In vitro inhibitory activity against human Prostaglandin G/H synthase 2 (COX-2).

The target in assay [2] is Prostaglandin G/H synthase 1 (Homo sapiens, UniProt P23219).
Description: Inhibition of human Prostaglandin G/H synthase 1
The next assay concerns Rattus norvegicus. As to the kind of experiment: In vivo activity was determined by rat pouch assay at concentration of 2 mg/kg. In kind it is functional.

Sequence of Prostaglandin G/H synthase 1 (P23219 whole entry): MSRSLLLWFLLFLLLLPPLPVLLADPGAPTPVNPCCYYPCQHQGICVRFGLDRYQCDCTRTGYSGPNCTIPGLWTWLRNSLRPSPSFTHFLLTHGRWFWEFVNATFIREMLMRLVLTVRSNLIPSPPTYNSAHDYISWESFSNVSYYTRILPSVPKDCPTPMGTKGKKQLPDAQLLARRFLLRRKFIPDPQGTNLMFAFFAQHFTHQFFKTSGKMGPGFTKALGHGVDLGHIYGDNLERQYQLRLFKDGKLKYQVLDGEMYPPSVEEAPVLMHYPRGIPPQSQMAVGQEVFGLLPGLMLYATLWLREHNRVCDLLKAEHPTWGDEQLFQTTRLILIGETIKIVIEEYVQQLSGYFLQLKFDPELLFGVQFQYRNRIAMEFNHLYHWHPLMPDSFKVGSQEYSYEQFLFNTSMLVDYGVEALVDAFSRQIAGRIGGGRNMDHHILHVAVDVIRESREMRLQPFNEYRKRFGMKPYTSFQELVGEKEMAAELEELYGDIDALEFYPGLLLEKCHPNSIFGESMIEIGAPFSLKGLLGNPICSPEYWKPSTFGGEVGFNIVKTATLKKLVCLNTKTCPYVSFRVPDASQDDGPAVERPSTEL

Turning to `COc1ccc(-c2nc(NCc3ccccc3)sc2-c2ccc(S(N)(=O)=O)cc2)cc1F`, the IC50 in assay [1] was 0.059 µM; in assay [2], 0.01 µM.

For the compound `Cc1nc(-c2ccc(S(N)(=O)=O)cc2)c(-c2ccccc2)s1`, the half-inhibitory concentration (IC50) in assay [1] was 0.029 µM; in assay [2], 72.5 µM. Further, the inhibition in vivo at 2 mg/kg in the assay with Rattus norvegicus worked out at 7%.

In the case of `Cc1nc(-c2ccc(S(N)(=O)=O)cc2)c(-c2ccc(Cl)cc2)s1`, the figures for the IC50 in assay [1] and in assay [2] were 0.018 µM and 35.6 µM, respectively. Besides, the inhibition in vivo at 2 mg/kg in the assay with Rattus norvegicus came to 30%.

Consider `Cc1nc(-c2ccccc2)c(-c2ccc(S(N)(=O)=O)cc2)s1`, for which the results for the IC50 in assay [1] and in assay [2] were 0.038 µM and 34 µM, respectively. The inhibition in vivo at 2 mg/kg in the assay on Rattus norvegicus came out at 59%.

With `NS(=O)(=O)c1ccc(-c2sc(-c3ccccc3Cl)nc2-c2ccc(F)cc2)cc1`, the IC50 in assay [1] is 0.013 µM; in assay [2], 0.08 µM. Further, the inhibition in vivo at 2 mg/kg in the assay on Rattus norvegicus turned out to be 50%.

In assay [2], `NS(=O)(=O)c1ccc(-c2sc(COc3cc(Cl)cc(Cl)c3)nc2-c2ccc(F)cc2)cc1` showed an IC50 of 0.12 µM.

As for `COc1ccc(-c2nc(-c3ccccc3Cl)sc2-c2ccc(S(N)(=O)=O)cc2)cc1F`, the IC50 in assay [1] was 2.48 µM; in assay [2], more than 100 µM. Besides, the inhibition in vivo at 2 mg/kg in the assay with Rattus norvegicus was found to be 33%.

As to `Cc1nc(-c2ccc(Cl)cc2)c(-c2ccc(S(N)(=O)=O)cc2)s1`, the IC50 amounted to 0.005 µM in assay [1] and 1.84 µM in assay [2]. The inhibition in vivo at 2 mg/kg in the assay with Rattus norvegicus amounted to 42%.

On to `Cc1nc(-c2ccc(S(N)(=O)=O)cc2)c(-c2ccc(Br)cc2)s1`, for which the IC50 came out at 0.024 µM in assay [1] and 115 µM in assay [2].

Consider `COc1ccc(-c2nc(C)sc2-c2ccc(S(N)(=O)=O)cc2)cc1F`, for which the IC50 in assay [1] turned out to be 0.028 µM; in assay [2], 4.18 µM.

The term IC50 denotes the concentration that gives 50% inhibition. The low end stands for greater potency in that assay, the high end for weaker potency in that assay. The term inhibition in vivo denotes the share of the control response that was lost under treatment.

For the origin of these results see ChEMBL document CHEMBL1131679, “Synthesis and activity of sulfonamide-substituted 4,5-diaryl thiazoles as selective cyclooxygenase-2 inhibitors” (Bioorg Med Chem Lett, 1999).
